Source: patent publication US7981896B2 (Athersys, Inc., priority 2006, dated 2011)

Target: T1, human histamine H3 receptor (Homo sapiens, UniProt Q9Y5N1)
T1 construct: endogenous in cells; host or cells: HT1080-Gqαi5 RAGE clone (RAGE-H3), human fibrosarcoma line; integrated RAGE vector pFG8-HH3 supplies exon 1, the cell's own gene supplies the other exons
Assay: Competition radioligand binding assay with [125I]iodoproxyfan on membranes of RAGE-H3 (HT1080-Gqαi5) cells expressing human H3 receptor
Settings: ~0.15 nM [125I]iodoproxyfan, 1.5 hrs at room temperature, head does not name the quantity (apparent Ki by Cheng-Prussof)
Method: Representative compounds of the present invention that were prepared by the procedures of Examples 1-83 were evaluated in binding assays against cells expressing human H3 receptor by the following procedure.
[^125I]iodoproxyfan (2000 Ci/mmol) was obtained from Amersham Bioscience (Piscataway, N.J.). All other chemicals were either from Sigma-Aldrich (St. Louis, Mo.) or Tocris Cookson Inc. (Ellisville, Mo.).
The human histamine H3 receptor was stably expressed in HT1080 cells containing the chimeric G-protein, Gq[…]i5 (Coward et al., Anal Biochem 1999; 270:242-8). HT1080-Gqαi5 cells were grown in alpha-modified MEM containing 10% fetal bovine serum and 7 μg/ml blasticidin at 37° C. in 5% CO2/95% atmosphere. Cells (4.8×10^9) were irradiated with 50 rads from a ^137Cs source and the pFG8-HH3 RAGE (Random Activation of Gene Expression; see Harrington et al., Nature Biotechnology. 2001; 19:440-45) vector was subsequently integrated into the cells via electroporation (250V, 600 μF, 50Ω). The RAGE vector pFG8-HH3 contained cDNA sequence coding for the first exon (83 amino acids) of human H3 receptor. After electroporation, cells were plated in T75 flasks and grown in alpha-modified MEM. The culture medium was replaced 48 hrs after electroporation with alpha-modified MEM, 10% fetal bovine serum, 500 μg/ml hygromycin B and 3 μg/ml puromycin. Medium was replaced every four days during cell expansion. To identify RAGE activated cells expressing the H3 receptor, pools of approximately 10,000 colonies (5×10^7-1.5×10^8 cells total) were screened by PCR for the desired gene product (using primers specific to the RAGE vector and exon 2 of the H3 receptor). […] Positive 100 cells/well pools were identified by PCR, confirmed by sequencing, and subsequently subcloned to 0.8 cells/well. Once clones expressing the H3 receptor were identified by PCR analysis, assays (FLIPR or radioligand binding) were performed to confirm that the activated gene produced functional protein. The protein expression in the initial clones obtained from the RAGE library was increased by growth in the presence of methotrexate. Since the integrated RAGE vector contains the DHFR gene, such treatment selects for cells that have amplified the genetic locus containing the RAGE insert. Subclones obtained after methotrexate amplification were tested for functional activity in FLIPR assays to identify the clone that was most suitable for HTS. The final HT1080-Gqαi5 RAGE clone (RAGE-H3) expressing the human histamine H3 receptor was grown in alpha-modified MEM containing 10% fetal bovine serum, 3 μg/ml puromycin, 500 μg/ml hygromycin B, 3.2 μM methotrexate at 37° C. in 5% CO2/95% atmosphere.
RAGE-H3 cells (10^9) were washed twice with cold PBS, scraped off the plates, and centrifuged at 1000×g for 5 minutes. Cells were resuspended in ice-cold 10 mM Tris HCl, pH 7.4, containing 5 mM EDTA and protease inhibitor cocktail tablets (Roche Molecular Biochemicals). After incubating on ice for 10 min, the cells were homogenized with a dounce homogenizer or a polytron tissue grinder, and centrifuged at 1000×g for 10 min at 4° C. The resulting supernatant was centrifuged at 32,000×g for 30 min at 4° C. The membrane pellets were resuspended in 50 mM Tris HCl, pH 7.4, and stored at −80° C. until use. Protein concentration was determined by the Bradford method (Bio-Rad Laboratories, CA).
Binding assays were carried out in 96-well polypropylene plates in 50 mM Tris HCl, pH 7.4, containing 1 mM EDTA. Reaction mixtures contained 100 μl of membrane suspension, 50 μl of 4% DMSO, and 50 μl of increasing amounts of [^125I]iodoproxyfan (final concentration 0.0005-1.8 nM for human H3 receptor saturation binding assay). Nonspecific binding was defined by adding 10 μM clobenpropit to the reaction mixtures. […]

T1 sequence (Q9Y5N1 whole entry): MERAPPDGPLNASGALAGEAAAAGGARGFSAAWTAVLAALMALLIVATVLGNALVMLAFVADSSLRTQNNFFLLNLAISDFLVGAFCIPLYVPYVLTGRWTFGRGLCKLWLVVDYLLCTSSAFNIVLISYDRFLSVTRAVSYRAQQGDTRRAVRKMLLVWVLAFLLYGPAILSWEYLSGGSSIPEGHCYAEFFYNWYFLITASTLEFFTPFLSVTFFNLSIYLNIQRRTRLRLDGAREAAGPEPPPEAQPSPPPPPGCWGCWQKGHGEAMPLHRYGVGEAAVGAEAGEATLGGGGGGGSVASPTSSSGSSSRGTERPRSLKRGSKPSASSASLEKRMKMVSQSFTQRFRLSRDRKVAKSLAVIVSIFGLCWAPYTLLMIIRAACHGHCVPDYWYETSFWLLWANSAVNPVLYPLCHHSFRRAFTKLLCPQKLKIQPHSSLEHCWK

Row | Structure (SMILES) | Ki [nM]
1 | CC(C)c1cc(C(C)C)n(-c2ccc(OCCCN3CCCC3)cc2)n1 [Example 24, 3,5-Diisopropyl-1-[4-(3-pyrrolidin-1-yl-propoxy)-phenyl]-1H-pyrazole] | < 10
2 | FC(F)(F)c1cc(-c2ccccc2)n(-c2ccc(OCCCN3CCCCC3)cc2)n1 [Example 54, 1-{3-[4-(5-Phenyl-3-trifluoromethyl-pyrazol-1-yl)-phenoxy]-propyl}-piperidine] | < 100
